Columns and labels:
[1] = molecular target: T1, CYP19 (aromatase) (Homo sapiens, UniProt P11511); test: in vitro; settings: recombinant human microsomal CYP19, probe MFC
T1 sequence (P11511 whole entry): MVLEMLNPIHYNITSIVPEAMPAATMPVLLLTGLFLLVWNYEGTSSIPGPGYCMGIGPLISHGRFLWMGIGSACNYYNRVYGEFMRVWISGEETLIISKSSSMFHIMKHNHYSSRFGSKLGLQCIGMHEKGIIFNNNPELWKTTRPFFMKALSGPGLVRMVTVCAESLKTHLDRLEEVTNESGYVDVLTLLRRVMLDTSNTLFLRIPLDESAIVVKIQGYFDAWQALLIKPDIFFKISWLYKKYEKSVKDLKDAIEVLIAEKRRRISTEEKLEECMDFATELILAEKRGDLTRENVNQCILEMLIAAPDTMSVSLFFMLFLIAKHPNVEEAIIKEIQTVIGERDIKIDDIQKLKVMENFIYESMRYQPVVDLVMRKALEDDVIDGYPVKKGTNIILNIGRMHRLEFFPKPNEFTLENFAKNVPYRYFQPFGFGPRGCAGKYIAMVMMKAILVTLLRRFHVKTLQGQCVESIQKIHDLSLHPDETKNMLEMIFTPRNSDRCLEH
Description: Inhibition of recombinant human microsomal CYP19 at 50 uM using MFC as substrate measured after 30 mins by fluorometric analysis relative to control

[2] = molecular target: T2, Estrogen receptor beta (Homo sapiens, UniProt Q92731); test: Displacement of fluorescent ES2 from recombinant human ERbeta at 100 uM after 2 hrs in absence of light by fluorometric analysis relative to control
T2 sequence (Q92731 whole entry): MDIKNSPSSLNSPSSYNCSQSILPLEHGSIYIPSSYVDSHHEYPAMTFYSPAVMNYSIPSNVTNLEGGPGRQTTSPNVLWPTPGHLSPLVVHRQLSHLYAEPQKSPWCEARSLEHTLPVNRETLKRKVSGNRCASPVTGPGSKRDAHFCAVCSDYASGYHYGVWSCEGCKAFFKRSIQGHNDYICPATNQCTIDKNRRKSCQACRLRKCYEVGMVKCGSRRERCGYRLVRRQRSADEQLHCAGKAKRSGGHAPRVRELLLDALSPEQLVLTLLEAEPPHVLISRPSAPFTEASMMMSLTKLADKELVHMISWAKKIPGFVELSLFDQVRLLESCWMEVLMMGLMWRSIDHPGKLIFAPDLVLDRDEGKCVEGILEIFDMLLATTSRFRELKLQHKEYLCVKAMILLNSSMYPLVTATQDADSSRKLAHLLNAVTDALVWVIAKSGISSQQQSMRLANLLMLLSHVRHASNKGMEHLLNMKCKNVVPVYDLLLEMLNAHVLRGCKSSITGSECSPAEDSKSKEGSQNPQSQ

[3] = molecular target: T3, Estrogen receptor (Homo sapiens) (UniProt P03372); test: Displacement of fluorescent ES2 from recombinant human ERalpha at 100 uM after 2 hrs in absence of light by fluorometric analysis relative to control
T3 sequence (whole entry): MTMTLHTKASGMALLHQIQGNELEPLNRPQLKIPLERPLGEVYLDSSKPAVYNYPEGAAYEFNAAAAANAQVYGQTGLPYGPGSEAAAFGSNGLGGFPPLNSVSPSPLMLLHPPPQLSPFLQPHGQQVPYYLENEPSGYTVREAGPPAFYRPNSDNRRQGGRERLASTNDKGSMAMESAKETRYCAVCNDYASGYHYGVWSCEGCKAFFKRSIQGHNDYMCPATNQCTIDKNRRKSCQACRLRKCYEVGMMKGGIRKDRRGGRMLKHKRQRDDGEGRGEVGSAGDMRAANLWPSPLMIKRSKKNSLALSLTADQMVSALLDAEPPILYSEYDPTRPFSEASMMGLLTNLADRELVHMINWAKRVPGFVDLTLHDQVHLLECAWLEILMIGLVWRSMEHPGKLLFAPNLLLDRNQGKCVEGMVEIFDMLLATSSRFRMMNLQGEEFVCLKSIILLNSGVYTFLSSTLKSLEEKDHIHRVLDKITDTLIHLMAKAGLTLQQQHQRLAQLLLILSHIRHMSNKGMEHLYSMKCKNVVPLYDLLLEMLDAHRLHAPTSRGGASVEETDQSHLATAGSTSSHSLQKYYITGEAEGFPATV

[4] = molecular target: T4, Aromatase (Homo sapiens, UniProt P11511)
T4 sequence (P11511 whole entry): T1 sequence (P11511 whole entry)
Description: Inhibition of recombinant human microsomal CYP19 using MFC as substrate measured after 30 mins by fluorometric analysis

[5] = molecular target: T2, Estrogen receptor beta
Description: Displacement of fluorescent ES2 from recombinant human ERbeta after 2 hrs in absence of light by fluorometric analysis

[6] = molecular target: T5, Estrogen receptor (Homo sapiens, UniProt P03372)
T5 sequence (P03372 whole entry): T3 sequence (whole entry)
Description: Displacement of fluorescent ES2 from recombinant human ERalpha after 2 hrs in absence of light by fluorometric analysis

| SMILES | inhibition at 0.5 h, 50 µM [1] | inhibition [2] | inhibition [3] | IC50 [4] | EC50 [5] | EC50 [6] |
| --- | --- | --- | --- | --- | --- | --- |
| CC/C(=C(\c1ccc(O)cc1)c1ccc(OCCN)cc1)c1ccccc1 | > 90% |  |  |  |  |  |
| CC(=C(c1ccc(O)cc1)c1ccc(O)cc1)c1ccc([N+](=O)[O-])cc1 | 75% | 55% | 19% |  |  |  |
| CCC(=C(c1ccc(N)cc1)c1ccc(N)cc1)c1ccc(N)cc1 | > 90% | 76% | 25% |  |  |  |
| CCC(=C(c1ccc(O)cc1)c1ccc(O)cc1)c1ccccc1 | > 90% |  |  |  |  |  |
| CCC(=C(c1ccc(N)cc1)c1ccc(N)cc1)c1ccc([N+](=O)[O-])cc1 | > 90% |  |  |  |  |  |
| CC/C(=C(/c1ccc(O)cc1)c1ccc(OCC(N)=O)cc1)c1ccccc1 | > 90% | 71% | 57% | 9260 nM |  |  |
| CC(=C(c1ccc(N)cc1)c1ccc(N)cc1)c1ccc(N)cc1 | > 90% | 77% | 31% |  |  |  |
| CC/C(=C(/c1ccc(O)cc1)c1ccc(OCCN)cc1)c1ccccc1 | > 90% |  |  |  |  |  |
| CCC(=C(c1ccc(O)cc1)c1ccc(OCC(N)=O)cc1)c1ccc([N+](=O)[O-])cc1 | 76% | 0% | 0% |  |  |  |
| CC(=C(c1ccc(N)cc1)c1ccc(NCC(N)=O)cc1)c1ccc([N+](=O)[O-])cc1 | > 90% |  |  | 645 nM | 218 nM | 164 nM |
| CCC(=C(c1ccc(O)cc1)c1ccc(OCCN)cc1)c1ccccc1 | > 90% |  |  |  |  |  |
| CCC(=C(c1ccc(N)cc1)c1ccc(NCC(N)=O)cc1)c1ccc([N+](=O)[O-])cc1 | > 90% |  |  | 287 nM | 346 nM | 451 nM |
| CC(=C(c1ccc(O)cc1)c1ccc(O)cc1)c1ccc(N)cc1 | > 90% |  |  |  |  |  |
| CC(=C(c1ccc(O)cc1)c1ccc(OCC(N)=O)cc1)c1ccc([N+](=O)[O-])cc1 | > 90% | 0% | 0% | 9720 nM |  |  |
| CC(=C(c1ccc(N)cc1)c1ccc(N)cc1)c1ccc([N+](=O)[O-])cc1 | > 90% |  |  |  |  |  |
| CCC(=C(c1ccc(O)cc1)c1ccc(O)cc1)c1ccc(N)cc1 | > 90% |  |  |  |  |  |
| CCC(=C(c1ccc(O)cc1)c1ccc(O)cc1)c1ccc([N+](=O)[O-])cc1 | 78% | 66% | 40% |  |  |  |

— ChEMBL document CHEMBL3860069, “A new Suzuki synthesis of triphenylethylenes that inhibit aromatase and bind to estrogen receptors α and β” (Bioorg Med Chem, 2016)
